Tests used:
Experiment in all cases: relative viability (nuclei count vs DMSO), 5 days (fraction); higher = more cells survive
VE-821 + OSI-027 = compound: CS(=O)(=O)c1ccc(-c2cnc(N)c(C(=O)Nc3ccccc3)n2)cc1 [VE-821] + COc1cccc2cc(-c3nc([C@H]4CC[C@H](C(=O)O)CC4)n4ncnc(N)c34)[nH]c12 [OSI-027] (partner 0.5 µM)
Outline: (§1)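 For relative viability, nuclei counts in treated wells were divided by those in vehicle wells. Lung cancer cell lines had been pin-tool dosed in 1536-well plates the day after seeding and cultured for 5 days, then fixed and stained in one step (final 0.05% Triton X-100, 1% formaldehyde, 1 ug/ml Hoechst) and imaged at 4×. Doses were one drug alone or a fixed anchor-drug dose plus five library-drug doses (not always all listed) in √10 steps, and values are duplicate-plate medians.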

Ruxolitinib + Linsitinib = compound: N#CC[C@H](C1CCCC1)n1cc(-c2ncnc3[nH]ccc23)cn1 [Ruxolitinib] + C[C@]1(O)C[C@@H](c2nc(-c3ccc4ccc(-c5ccccc5)nc4c3)c3c(N)nccn32)C1 [Linsitinib] (partner 1 µM)
Outline: as §1

Ruxolitinib + Tozasertib = compound: N#CC[C@H](C1CCCC1)n1cc(-c2ncnc3[nH]ccc23)cn1 [Ruxolitinib] + Cc1cc(Nc2cc(N3CCN(C)CC3)nc(Sc3ccc(NC(=O)C4CC4)cc3)n2)n[nH]1 [Tozasertib] (partner 0.1 µM)
Outline: as §1

VE-821 + Trametinib = compound: CS(=O)(=O)c1ccc(-c2cnc(N)c(C(=O)Nc3ccccc3)n2)cc1 [VE-821] + CC(=O)Nc1cccc(-n2c(=O)n(C3CC3)c(=O)c3c(Nc4ccc(I)cc4F)n(C)c(=O)c(C)c32)c1 [Trametinib] (partner 0.02 µM)
Outline: as §1

| Cell Line | relative viability (VE-821 + OSI-027; first compound 0.08 µM) | relative viability (VE-821 + OSI-027; first compound 0.253 µM) | relative viability (VE-821 + OSI-027; first compound 0.8 µM) | relative viability (VE-821 + OSI-027; first compound 2.53 µM) | relative viability (VE-821 + OSI-027; first compound 8 µM) | relative viability (Ruxolitinib + Linsitinib; first compound 0.08 µM) | relative viability (Ruxolitinib + Linsitinib; first compound 0.253 µM) | relative viability (Ruxolitinib + Linsitinib; first compound 0.8 µM) | relative viability (Ruxolitinib + Linsitinib; first compound 2.53 µM) | relative viability (Ruxolitinib + Linsitinib; first compound 8 µM) | relative viability (Ruxolitinib + Tozasertib; first compound 0.08 µM) | relative viability (Ruxolitinib + Tozasertib; first compound 0.253 µM) | relative viability (Ruxolitinib + Tozasertib; first compound 0.8 µM) | relative viability (Ruxolitinib + Tozasertib; first compound 2.53 µM) | relative viability (Ruxolitinib + Tozasertib; first compound 8 µM) | relative viability (VE-821 + Trametinib; first compound 0.08 µM) | relative viability (VE-821 + Trametinib; first compound 0.253 µM) | relative viability (VE-821 + Trametinib; first compound 0.8 µM) | relative viability (VE-821 + Trametinib; first compound 2.53 µM) | relative viability (VE-821 + Trametinib; first compound 8 µM) |
| --- | --- | --- | --- | --- | --- | --- | --- | --- | --- | --- | --- | --- | --- | --- | --- | --- | --- | --- | --- | --- |
| 201T | 0.815 | 0.672 | 0.688 | 0.747 | 0.381 | 1.1 | 1.15 | 1.19 | 1.21 | 1.22 | 1.11 | 1.19 | 1.17 | 1.21 | 1.11 | 0.743 | 0.721 | 0.725 | 0.734 | 0.693 |
| A549 | – | – | – | – | – | 0.594 | 0.576 | 0.896 | 0.558 | 0.675 | – | – | – | – | – | – | – | – | – | – |
| A-427 | 0.514 | 0.418 | 0.391 | 0.412 | 0.286 | 1.14 | 1.11 | 1.13 | 0.961 | 0.922 | 0.232 | 0.201 | 0.237 | 0.184 | 0.179 | 0.868 | 0.676 | 0.812 | 0.686 | 0.495 |
| ABC-1 | 0.53 | 0.485 | 0.485 | 0.475 | 0.381 | 0.983 | 0.705 | 0.865 | 0.97 | 0.871 | – | 0.222 | 0.155 | 0.202 | 0.201 | – | – | – | – | – |
| BEN | 0.279 | 0.297 | 0.332 | 0.277 | 0.316 | 0.751 | 0.887 | 1.15 | 0.758 | 1.03 | 0.486 | 0.503 | 0.552 | 0.537 | 0.453 | 1.08 | 1.02 | 0.982 | 1.14 | 1.09 |
| CAL-12T | 0.529 | 0.612 | 0.489 | 0.423 | 0.483 | 0.819 | 0.744 | 0.853 | 0.614 | 0.7 | 0.348 | 0.412 | 0.344 | 0.313 | 0.312 | 0.372 | 0.355 | 0.325 | 0.322 | 0.325 |
| COR-L23 | 0.9 | 0.751 | 0.797 | 0.766 | 0.63 | 0.919 | 0.92 | 0.95 | 0.833 | 0.671 | 0.204 | 0.217 | 0.204 | 0.192 | 0.146 | 0.658 | 0.658 | 0.587 | 0.759 | 0.535 |
| COR-L 105 | 0.741 | 0.551 | 0.647 | 0.642 | 0.695 | 0.95 | 0.719 | 0.912 | 0.642 | 0.758 | 0.383 | 0.314 | 0.423 | 0.475 | 0.35 | 0.463 | 0.412 | 0.483 | 0.4 | 0.449 |
| Calu-6 | – | – | – | – | – | 0.94 | 0.923 | 1.01 | – | 0.882 | – | – | – | – | – | – | – | – | – | – |
| ChaGo-K-1 | 0.624 | 0.475 | 0.669 | 0.649 | 0.419 | – | – | – | – | – | 0.246 | 0.243 | 0.454 | 0.176 | 0.195 | 0.981 | 0.932 | 0.866 | 0.969 | 0.851 |
| EBC-1 | – | – | – | – | – | 0.831 | 1.1 | 1.06 | 0.783 | 0.823 | – | – | – | – | – | – | – | – | – | – |
| EKVX | 0.696 | 0.675 | 0.676 | 0.745 | 0.605 | 0.876 | 0.897 | 0.966 | 0.893 | 0.813 | 0.392 | 0.439 | 0.463 | 0.282 | 0.443 | 0.347 | 0.317 | 0.298 | 0.376 | 0.3 |
| EMC-BAC-2 | 0.398 | 0.319 | 0.372 | 0.388 | 0.346 | 0.799 | 0.822 | 0.87 | 0.744 | 0.66 | 0.292 | 0.288 | 0.279 | 0.262 | 0.236 | 0.925 | 0.856 | 0.984 | 1.02 | 0.966 |
| EPLC-272H | 0.286 | 0.268 | 0.296 | 0.333 | 0.21 | 1.26 | 1.12 | 1.31 | 1.19 | 1.25 | 0.25 | 0.407 | 0.241 | 0.345 | 0.264 | 0.291 | 0.28 | 0.273 | 0.289 | 0.27 |
| H3255 | 0.603 | 0.584 | 0.637 | 0.606 | 0.566 | 0.464 | 0.887 | 1.17 | 0.706 | 0.86 | 0.612 | 0.568 | 0.841 | 0.56 | 0.682 | 0.666 | 0.646 | 0.619 | 0.88 | 0.63 |
| HARA | 0.75 | 0.434 | 0.497 | 0.76 | 0.392 | 0.983 | 1.01 | 1.03 | 0.912 | 0.815 | 0.113 | 0.111 | 0.112 | 0.107 | 0.119 | 0.686 | 1.08 | 0.553 | 0.767 | 0.608 |
| HCC-15 | 0.835 | 0.689 | 0.692 | 0.855 | 0.682 | 0.855 | 0.849 | 0.855 | 0.842 | 0.737 | 0.406 | 0.434 | 0.519 | 0.481 | 0.421 | 0.354 | 0.334 | 0.39 | 0.499 | 0.487 |
| HCC-44 | 0.498 | 0.427 | 0.634 | 0.563 | 0.556 | 0.664 | 0.739 | 0.66 | 0.51 | 0.395 | 0.953 | 1.11 | 1.15 | 0.804 | 0.761 | 1.11 | 1.03 | 1.12 | 1.13 | 0.961 |
| HCC-78 | 0.385 | 0.349 | 0.372 | 0.401 | 0.326 | 0.419 | 0.296 | 0.437 | 0.372 | 0.414 | 0.512 | 0.45 | 0.414 | 0.55 | 0.5 | 0.816 | 0.646 | 0.689 | 0.855 | 0.917 |
